This passage reports IC50 results from BindingDB's records for patent US10550100 (GALAPAGOS NV, 2020).

Structures are written as SMILES.

A word on the IC50: it is the concentration that gives 50% inhibition.

The assay concerns the target T1, A disintegrin and metalloproteinase with thrombospondin motifs 6 (Human, UniProt Q9UKP5).
T1 sequence (Q9UKP5 whole entry): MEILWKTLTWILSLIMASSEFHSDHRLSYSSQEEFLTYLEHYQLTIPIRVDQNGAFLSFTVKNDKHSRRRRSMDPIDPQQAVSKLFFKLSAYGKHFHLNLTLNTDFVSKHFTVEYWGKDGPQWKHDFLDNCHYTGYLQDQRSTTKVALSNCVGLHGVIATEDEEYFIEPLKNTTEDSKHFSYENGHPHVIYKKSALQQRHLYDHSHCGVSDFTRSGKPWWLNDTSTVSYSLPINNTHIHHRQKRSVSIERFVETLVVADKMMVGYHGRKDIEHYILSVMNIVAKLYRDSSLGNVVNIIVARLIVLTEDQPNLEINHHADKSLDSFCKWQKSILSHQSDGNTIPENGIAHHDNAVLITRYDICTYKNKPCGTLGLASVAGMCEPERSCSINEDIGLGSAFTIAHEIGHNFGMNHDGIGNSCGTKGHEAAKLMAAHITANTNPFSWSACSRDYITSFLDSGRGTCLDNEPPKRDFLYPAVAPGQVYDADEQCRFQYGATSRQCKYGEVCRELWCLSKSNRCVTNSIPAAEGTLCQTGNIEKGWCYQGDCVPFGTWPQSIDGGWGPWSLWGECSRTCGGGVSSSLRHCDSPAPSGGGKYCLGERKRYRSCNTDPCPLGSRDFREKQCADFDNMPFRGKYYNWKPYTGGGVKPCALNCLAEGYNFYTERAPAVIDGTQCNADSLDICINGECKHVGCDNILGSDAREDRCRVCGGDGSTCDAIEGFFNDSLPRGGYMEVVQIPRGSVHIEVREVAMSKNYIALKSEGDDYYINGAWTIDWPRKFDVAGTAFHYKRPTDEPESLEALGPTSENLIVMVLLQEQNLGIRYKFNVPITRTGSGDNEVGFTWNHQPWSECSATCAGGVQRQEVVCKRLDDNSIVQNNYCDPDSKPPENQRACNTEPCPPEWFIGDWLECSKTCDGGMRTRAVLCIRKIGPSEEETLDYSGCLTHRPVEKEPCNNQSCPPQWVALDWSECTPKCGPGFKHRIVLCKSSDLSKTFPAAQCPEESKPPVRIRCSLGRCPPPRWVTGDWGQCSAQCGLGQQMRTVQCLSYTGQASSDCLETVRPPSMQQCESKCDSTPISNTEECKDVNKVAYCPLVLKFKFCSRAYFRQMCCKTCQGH
The experiment in a line: hADAMTS-6 Assay. As for the experimental part:
Without ADAMTS6, the emission of the probe is quenched. If the substrate is cleaved by ADAMTS6, the emission of the probe is not quenched anymore. […] The reaction is started by addition of 10 μL of 1 μM 520 MMP FRET Substrate XII (final concentration, diluted in same buffer as described above) and the mixture is incubated at 37° C. for 2 h. […] After this incubation, cleavage of the substrate is measured using the Envision (Perkin Elmer, exc485/em530).

`COc1c(Cl)cc(Cl)cc1C1CCN(C(=O)CC[C@H]2NC(=O)NC2=O)CC1` [US10550100, Compound 70] gave an IC50 greater than 100 nM.
